Data reported in PubChem BioAssay AID467 (The Scripps Research Institute Molecular Screening Center, 2006).
Activity calls are given as the source filed them. The rule behind the calls is not given here.

System: parental cell line counter screen, S1P1 agonist assay readout
Assay: signal in parental cells, counter-screen for S1P1 agonist project (AID 467);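 note: agonist potency measured against forskolin stimulation plus an EC20 level of SEW2871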

Compound | EC50
Cc1ccc(-n2c(C)cc(C(=O)COC(=O)c3c(C)noc3C)c2C)cc1 | 37.6 µM (inactive)
COc1ccc(N2CCn3c2nc2c3c(=O)n(CCCc3ccccc3)c(=O)n2C)c(OC)c1 | > 10 µM (inactive)
CCCc1cc(C(=O)Nc2sc3c(c2C#N)CCC3)no1 | > 95.1 µM (inactive)
OC(c1cccc(OCc2ccccc2)c1)c1nnc(-c2ccccc2)o1 (stereo not drawn) | > 30 µM (inactive)
Cn1c(C(=O)N2CCc3ccccc3C2)cc2oc3ccccc3c21 | 66.4 µM (inactive)
O=C(Oc1cccc(C(=O)N2CCOCC2)c1)c1ccc(Br)cc1 | > 95.1 µM (inactive)
Cn1nc(CC(=O)Nc2ccc3c(c2)OCCO3)c2ccccc2c1=O | > 30 µM (inactive)
COC(=O)C1=CN(CCCN2CCCC2=O)C=C(C(=O)OC)C1c1ccccc1C(F)(F)F | > 95.1 µM (inactive)
FC(F)(F)c1ccc(N2CCN(c3cc(-c4ccccc4)nc4ncnn34)CC2)nc1 | > 95.1 µM (inactive)
COc1ccccc1Oc1ccc2c(c1)C(=O)N(c1ccc(O)cc1)C2=O | > 95.1 µM (inactive)
Cn1cccc1C(=O)OCc1cc(Cl)cc2c1OCOC2 | > 30 µM (inactive)
c1ccc2c(c1)oc1c(NCc3ccc4c(c3)OCO4)ncnc12 | 38.9 µM (inactive)
CCOC(=O)c1cccc2c1-c1ccccc1/C2=N/O | 12 µM (inactive)
COc1ccc(OC)c(-c2cc(C(=O)Nc3c(C)nn(Cc4ccc(Cl)cc4)c3C)no2)c1 | > 95.1 µM (inactive)
CCc1ccc(-c2nc(-c3ccncc3)no2)cc1 | > 95.1 µM (inactive)
Cc1nn(Cc2ccc(Cl)c(Cl)c2)c(C)c1NC(=O)c1cc(-c2ccco2)on1 | 13.2 µM (inactive)
CCOC(=O)C1C(=O)C=C(c2ccc(OC)cc2)CC1c1ccco1 (stereo not drawn) | > 30 µM (inactive)
CC(=O)N1C=CN(C(C)=O)C(c2cn(C)c3ccccc23)C1c1cn(C)c2ccccc12 (stereo not drawn) | > 30 µM (inactive)
CCc1cc(-c2[nH]ncc2-c2ccc3c(c2)OCO3)c(O)cc1O | 9.08 µM
CC(Oc1ccccc1Br)C(=O)N1CCc2ccccc21 (stereo not drawn) | > 95.1 µM (inactive)
O=C(Nc1ccc(N2CCCC2)c(Cl)c1)c1ccc(Br)o1 | > 95.1 µM (inactive)
CCOc1ccccc1OCCCCCc1c(C)n[nH]c1C | > 30 µM (inactive)
O=C(CSc1nnc(-c2cc3ccccc3cc2O)n1Cc1ccco1)c1ccc(F)cc1 | > 10 µM (inactive)
O=C(CSc1nc2ccccc2o1)Nc1ccc(N2CCOCC2)c(Cl)c1 | 19.6 µM (inactive)
CCc1ccc(S(=O)(=O)NCCc2csc(-c3ccccc3)n2)s1 | 33.4 µM (inactive)
COc1ccccc1-c1cc(C(=O)Nc2ccccc2SC)no1 | > 95.1 µM (inactive)

Compound | EC50
CCCn1c(CNc2ccc(Br)cc2)nc2ccccc21 | 38.1 µM (inactive)
CC(C)OC(=O)CSc1nc(N)c(C#N)c(-c2cccs2)c1C#N | > 95.1 µM (inactive)
CN(C)S(=O)(=O)c1ccc(C(=O)Nc2nc(-c3cccs3)cs2)cc1 | > 95.1 µM (inactive)
COc1ccc(NC(=O)c2cnn3c(C(F)(F)F)cc(-c4ccco4)nc23)cc1OC | > 95.1 µM (inactive)
O=C(c1cc(-c2ccco2)on1)N1CCN(C(c2ccccc2)c2ccccc2)CC1 | > 95.1 µM (inactive)
COc1ccccc1-c1nc(-c2ccc(Br)cc2)no1 | > 95.1 µM (inactive)
CCN(CC)C(=O)CSC(=Nc1ccccc1F)NC#N | > 95.1 µM (inactive)
CCOC(=O)c1cnc(-n2nc(C)cc2C)nc1NC1CCCCC1 | 5.93 µM
Cc1ccccc1-c1nnc(SCc2ccccc2F)o1 | > 95.1 µM (inactive)
Cc1nnc2ccc(Oc3ccc(-c4ccccc4)cc3)nn12 | > 30 µM (inactive)
CCOc1cc(-c2noc(-c3cccnc3)n2)ccc1OC | > 95.1 µM (inactive)
Oc1ccc(-c2nc(-c3ccc(O)c(O)c3)cs2)cc1 | 6.35 µM
C=CCn1c(C)cc(C(=O)CSc2nc3ccccc3o2)c1C | > 30 µM (inactive)
CC1=CC(C)(C)Nc2ccc(OC(=O)c3ccco3)cc21 | > 3 µM (inactive)
CCOC(=O)c1ccc2c(c1)C(=O)N(C1CCCCC1)C2=O | > 95.1 µM (inactive)
CCCCn1nnnc1SCC(=O)c1ccc(C)c(C)c1 | > 95.1 µM (inactive)
CCC(C)OC(=O)c1[nH]c2c(c1C)C(=O)CC(c1ccc(N(C)C)cc1)C2 (stereo not drawn) | > 30 µM (inactive)
CC(C)(C)SCCNS(=O)(=O)c1ccccc1 | > 95.1 µM (inactive)
CN=C(NC#N)SCC(=O)c1ccc(Cl)cc1Cl | > 30 µM (inactive)
Cc1ccc(C(=O)Nc2nc(COc3ccccc3)cs2)s1 | 28.9 µM (inactive)
Clc1ccc(-n2nnnc2Sc2ncnc3sccc23)cc1 | 2.87 µM
N#Cc1nc(-c2ccc(OCc3ccccc3)cc2)oc1NCc1cccnc1 | > 95.1 µM (inactive)
Fc1ccc(COc2ccc(/C=N/n3cnnc3)cc2)cc1 | > 95.1 µM (inactive)
c1ccc(N2CCN(Cc3ccnc4ccccc34)CC2)cc1 | 47.9 µM (inactive)
COc1ccc(Cc2nc(-c3ccc(-n4cccc4)cc3)no2)cc1OC | > 95.1 µM (inactive)
Cc1cc(C)n(-c2nc3ccccc3c(=O)n2OCCOc2ccccc2)n1 | > 95.1 µM (inactive)

Compound | EC50
CCCCOc1ccc(S(=O)(=O)Nc2cc(OC)ccc2OC)cc1 | > 30 µM (inactive)
CCN(C(=O)C1CCCCC1)c1nnc(-c2cccnc2)s1 | > 95.1 µM (inactive)
CCOc1nc(-c2ccccc2)ccc1-c1noc(-c2ccco2)n1 | > 95.1 µM (inactive)
CCc1nnc(NC(=O)C2CCCCC2)s1 | > 95.1 µM (inactive)
Cc1csc(NC(=O)C(Cc2ccccc2)n2cccc2)n1 (stereo not drawn) | > 30 µM (inactive)
c1ccc(CN2CCN(c3ncnc4c3[nH]c3ccccc34)CC2)cc1 | 12.1 µM (inactive)
Cc1cc(C)cc(-c2nc(-c3ccncc3)no2)c1 | > 95.1 µM (inactive)
Cc1nn(Cc2ccccc2)c(C)c1C(=O)OCC(=O)c1cc(C)n(C2CC2)c1C | > 30 µM (inactive)
CCOC(=O)c1oc2cc(O)c(CC)cc2c(=O)c1-c1ccc2c(c1)OCCO2 | > 30 µM (inactive)
OC1(c2cccc(C(F)(F)F)c2)CCN(c2ncnc3c2[nH]c2ccc(F)cc23)CC1 | > 3 µM (inactive)
Cc1ccccc1-n1c(SCC(=O)c2cc(C)n(C)c2C)nnc1-c1ccncc1 | > 95.1 µM (inactive)
Cc1nc2sc(-c3ccccc3)cc2c(=O)n1-n1cccc1 | > 95.1 µM (inactive)
Cc1ccsc1C(=O)OCC(=O)c1cc(C)n(CC2CCCO2)c1C (stereo not drawn) | > 95.1 µM (inactive)
Brc1ccc2ncnc(Nc3ccc(N4CCOCC4)cc3)c2c1 | 46.6 µM (inactive)
Cc1cccc(-c2nc(C#N)c(NC3CCCCC3)o2)c1 | > 95.1 µM (inactive)
N#C/C(=C/c1ccc(N2CCCCCC2)o1)c1ccc(F)cc1 | 4.4 µM
CCSc1nc(N2CCOCC2)c2c(c1C#N)CCCC2 | > 95.1 µM (inactive)
COC(=O)CC1SC(=O)NC1=Nc1ccccc1 (stereo not drawn) | > 95.1 µM (inactive)
O=C1C2C3C=CC(CO)(O3)C2C(=O)N1c1ccccc1-c1ccccc1 (stereo not drawn) | 2.26 µM
Fc1ccc2[nH]c3c(N4CCN(Cc5ccc6c(c5)OCO6)CC4)ncnc3c2c1 | 8.16 µM
CCOc1ccc(-c2nc(-c3ccccc3)no2)cc1OCC | > 95.1 µM (inactive)
CCCCOc1ccc(S(=O)(=O)n2c(C)nc3ccccc32)cc1 | > 95.1 µM (inactive)
N#Cc1ccc(NC(=O)Nc2ccc(Cl)cc2)cc1 | 9.6 µM
O=C(Nc1nc2c(s1)CCCC2)c1cc2n(n1)C(C(F)(F)F)CC(C1CC1)N2 (stereo not drawn) | > 95.1 µM (inactive)
COc1ccc(CNc2cc(C)nc3ncnn23)c(OC)c1 | > 95.1 µM (inactive)
COc1ccc(-n2c(C)cc(C(=O)COC(=O)Cn3cnc4ccccc43)c2C)cc1 | > 30 µM (inactive)

Compound | EC50
Fc1ccccc1COc1ccc(/C=N/n2cnnc2)cc1 | > 95.1 µM (inactive)
CC(=O)Oc1ccc(N2C(=O)C3C(C2=O)C2(C)C=CC3(C)O2)cc1 (stereo not drawn) | 3.23 µM
COc1ccc(-c2noc(-c3cccc(OC)c3OC)n2)cc1OC | > 95.1 µM (inactive)
COc1ccc(-c2nc3cc(NC(=O)Cc4ccc(OC)c(OC)c4)ccc3o2)cc1 | > 10 µM (inactive)
O=C(c1ccc(F)cc1)C(CN1CCOCC1)c1ccccc1 (stereo not drawn) | 11.4 µM (inactive)
Cc1ccc2oc(-c3ccc(NC(=O)c4cccnc4)cc3)nc2c1 | > 95.1 µM (inactive)
Cc1cc(N2CCN(C(c3ccccc3)c3ccccc3)CC2)n2ncnc2n1 | > 30 µM (inactive)
COC(=O)c1ccc2c(=O)n(C3CCCCC3)c(SCC#N)nc2c1 | > 95.1 µM (inactive)
O=C(c1ccccc1)C(CCC(CN1CCOCC1)C(=O)c1ccccc1)CN1CCOCC1 (stereo not drawn) | 2.68 µM
Cc1cc(N2CCOCC2)nc(NCc2ccccc2)n1 | 71.3 µM (inactive)
COc1ccccc1OCc1nc(C#N)c(N2CC(C)CC(C)C2)o1 (stereo not drawn) | > 95.1 µM (inactive)
CCCOC(=O)c1ccc(OCC(O)Cn2c(C)nc3ccccc32)cc1 (stereo not drawn) | > 95.1 µM (inactive)
Cc1nc2ncnn2c(N2CCN(c3cccc(C(F)(F)F)c3)CC2)c1C | > 30 µM (inactive)
CCOC(=O)c1oc2ccc(S(=O)(=O)n3nc(-c4ccc(OC)cc4)cc3N)cc2c1C | > 95.1 µM (inactive)
CCCCOC(=O)c1[nH]c2c(c1C)C(=O)CC(c1cc(OC)c(OC)c(OC)c1)C2 (stereo not drawn) | 12.1 µM (inactive)
CC(=O)Nc1ccc(S(=O)(=O)N2CCN(CCCOc3cc(C)ccc3C)CC2)cc1 | > 30 µM (inactive)
CC(=O)Nc1ccccc1OCC(=O)c1cc(C)n(Cc2cccs2)c1C | 10.5 µM (inactive)
Clc1ccc(CCNc2ncnc3nc[nH]c23)cc1 | 33.6 µM (inactive)
CN1c2ccccc2C(C)(C)C12C=Cc1cc(O)ccc1O2 (stereo not drawn) | > 10 µM (inactive)
Cc1cccc(N2CCN(C(=O)C3CCCN(S(=O)(=O)c4cccc5cccnc45)C3)CC2)c1C (stereo not drawn) | 28.7 µM (inactive)
CCOC(=O)c1sc2nc(NC(=O)C3CCCCC3)sc2c1C | > 95.1 µM (inactive)
Cc1cc(C(=O)CN2C(=O)c3ccccc3C2=O)c(C)n1Cc1cccs1 | > 95.1 µM (inactive)
Cc1csc(SCC(=O)c2cc(C)n(Cc3cccs3)c2C)n1 | 38.8 µM (inactive)
COC(=O)c1cc(NCc2ccccc2F)ccc1N1CCOCC1 | > 95.1 µM (inactive)
CC1=CC(C)(C)Nc2ccc(OC(=O)c3cccnc3)cc21 | 4.43 µM
